From ChEMBL document CHEMBL3580595, “Design, synthesis and biological evaluation of novel trimethylpyrazine-2-carbonyloxy-cinnamic acids as potent cardiovascular agents” (Medchemcomm, 2014)

Key:
[1] = Anti-platelet activity in rabbit platelet-rich plasma assessed as inhibition of ADP-induced platelet aggregation at 100 uM incubated for 5 mins at 37 degC by aggregometry; format: functional; conditions: Oryctolagus cuniculus
[2] = Anti-platelet activity in rabbit platelet-rich plasma assessed as inhibition of ADP-induced platelet aggregation at 50 uM incubated for 5 mins at 37 degC by aggregometry; format: functional; conditions: Oryctolagus cuniculus
[3] = Anti-platelet activity in rabbit platelet-rich plasma assessed as inhibition of ADP-induced platelet aggregation at 25 uM incubated for 5 mins at 37 degC by aggregometry; format: functional; conditions: Oryctolagus cuniculus
[4] = Anti-platelet activity in rabbit platelet-rich plasma assessed as inhibition of ADP-induced platelet aggregation at 12.5 uM incubated for 5 mins at 37 degC by aggregometry; format: functional; conditions: Oryctolagus cuniculus
[5] = Anti-platelet activity in rabbit platelet-rich plasma assessed as inhibition of ADP-induced platelet aggregation incubated for 5 mins at 37 degC by aggregometry; format: functional; conditions: Oryctolagus cuniculus
[6] = Cytoprotective activity against H2O2-induced cytotoxicity in human EAhy926 cells at 100 uM pre-incubated for 24 hrs before H2O2 challenge for 12 hrs by MTT assay; format: functional, EA.hy 926
[7] = Cytoprotective activity against H2O2-induced cytotoxicity in human EAhy926 cells at 50 uM pre-incubated for 24 hrs before H2O2 challenge for 12 hrs by MTT assay; format: functional, EA.hy 926
[8] = Cytoprotective activity against H2O2-induced cytotoxicity in human EAhy926 cells at 25 uM pre-incubated for 24 hrs before H2O2 challenge for 12 hrs by MTT assay; format: functional, EA.hy 926
[9] = Cytoprotective activity against H2O2-induced cytotoxicity in human EAhy926 cells at 12.5 uM pre-incubated for 24 hrs before H2O2 challenge for 12 hrs by MTT assay; format: functional, EA.hy 926
[10] = Cytoprotective activity against H2O2-induced cytotoxicity in human EAhy926 cells pre-incubated for 24 hrs before H2O2 challenge for 12 hrs by MTT assay; format: functional, cell-based; conditions: EA.hy 926

Row | Structure (SMILES) | IC50 [5] [µM] | inhibition at 100 µM [1] [%] | inhibition at 50 µM [2] [%] | inhibition at 25 µM [3] [%] | inhibition at 12.5 µM [4] [%] | Activity [6] [%] | Activity [7] [%] | Activity [8] [%] | Activity [9] [%] | EC50 [10] [µM]
1 | COc1ccc(/C=C/C(=O)O)cc1O [ISOFERULIC ACID] | – | – | – | – | – | 81.9 | 62.9 | 36.8 | 34.9 | 29.3
2 | Cc1nc(C)c(C(=O)Oc2ccc(/C=C/C(=O)O)cc2)nc1C | 37.8 | 25.3 | 41.7 | 53.3 | 64.3 | 93.2 | 74.1 | 46.6 | 34.2 | 38
3 | O=C(O)/C=C/c1ccc(Cn2ccnc2)cc1 [OZAGREL] | 144 | 36.8 | 25 | 4.8 | 6.4 | – | – | – | – | –
4 | COc1ccc(/C=C/C(=O)O)c(OC(=O)c2nc(C)c(C)nc2C)c1 | 134 | 40.9 | 34.1 | 35.1 | 16.5 | 18 | 31.6 | -52.1 | 39.7 | 115
5 | O=C(O)/C=C/c1ccc(O)c(O)c1 [CAFFEIC ACID] | – | – | – | – | – | 155.6 | 149.5 | 108.5 | 16.7 | 12.6
6 | COC(=O)[C@H](c1ccccc1Cl)N1CCc2sccc2C1 [CLOPIDOGREL] | 7.6 | 94.5 | 92.3 | 77.6 | 86.9 | – | – | – | – | –
7 | CCOC(=O)/C=C/c1ccc(O)c(O)c1 [ETHYL CAFFEATE] | – | – | – | – | – | 146.9 | 134.8 | 88.4 | 80.4 | 11.6
8 | O=C(O)CCCCC1CCSS1 (stereo not drawn) [LIPOIC ACID, ALPHA] | – | – | – | – | – | 58.1 | 48.7 | -12.3 | 30.5 | 68
9 | CCOC(=O)/C=C/c1ccc(O)c(OC)c1 [ETHYL FERULATE] | 193 | 26.5 | 17.9 | 11.5 | 4 | – | – | – | – | –
10 | CCOC(=O)/C=C/c1ccccc1OC(=O)c1nc(C)c(C)nc1C | 110 | 42.4 | 39 | 16.6 | 11.8 | 40.9 | 36.9 | 17.8 | 9.6 | 108
11 | Cc1nc(C)c(C(=O)Oc2ccccc2/C=C/C(=O)O)nc1C | 9.6 | 17.2 | 53.8 | 54.8 | 32.9 | 80.1 | 64.9 | 61.8 | 45.7 | 36.7
12 | O=C(O)/C=C/c1ccccc1O [O-COUMARIC ACID] | 116 | 42.9 | 30.5 | 21.4 | 10.8 | – | – | – | – | –
13 | CCOC(=O)/C=C/c1cc(Cl)ccc1OC(=O)c1nc(C)c(C)nc1C | 67.1 | 61.7 | 44.4 | 36.9 | 26.3 | 11 | 33.7 | 62.5 | 64.9 | 36.1
14 | CCOC(=O)/C=C/c1cc(OC)c(O)c(OC)c1 | – | – | – | – | – | 69.1 | 32 | 24.9 | 4.9 | 67.2

Continued, in another order:

Row | IC50 [5] [µM] | Structure (SMILES) | inhibition at 100 µM [1] [%] | inhibition at 50 µM [2] [%] | inhibition at 25 µM [3] [%] | inhibition at 12.5 µM [4] [%] | Activity [6] [%] | Activity [7] [%] | Activity [8] [%] | Activity [9] [%] | EC50 [10] [µM]
15 | 24.4 | CCOC(=O)/C=C/c1ccc(OC(=O)c2nc(C)c(C)nc2C)cc1 | 20.5 | 32.2 | 39.1 | 68 | 96.1 | 62.6 | 58.8 | 42.7 | 34.9
16 | 58.4 | CCOC(=O)/C=C/c1ccc(OC(=O)c2nc(C)c(C)nc2C)c(OC)c1 | 64.4 | 49.9 | 37.2 | 31 | 71.6 | 69.7 | 53.3 | 52.4 | 38.6
17 | 82.3 | COc1cc(/C=C/C(=O)O)cc(OC)c1OC(=O)c1nc(C)c(C)nc1C | 52.1 | 51.2 | 17.4 | 12 | 163 | 96.6 | 24 | 5.7 | 34.7
18 | 130 | CCOC(=O)/C=C/c1ccc(O)cc1 [ETHYL P-COUMARATE] | 37.9 | 25.5 | 16.4 | 5.8 | – | – | – | – | –
19 | 57.2 | Cc1nc(C)c(C(=O)Oc2ccc(Cl)cc2/C=C/C(=O)O)nc1C | 74.5 | 37 | 38.1 | 30 | 52.2 | 23.7 | 26 | 6.9 | 95.2
20 | 84.6 | Cc1nc(C)c(C(=O)Oc2ccc(/C=C/C(=O)O)cc2O)nc1C | 53.6 | 44.5 | 25 | 32.1 | 601.4 | 284.8 | 271.1 | 92.8 | 2.2
21 | 196 | CCOC(=O)/C=C/c1cc(OC)ccc1OC(=O)c1nc(C)c(C)nc1C | 60.7 | 72.9 | 73.9 | 70.5 | 46.2 | 27.8 | 23.4 | 15.9 | 105
22 | 143 | CCOC(=O)/C=C/c1ccc(OC)c(OC(=O)c2nc(C)c(C)nc2C)c1 | 39.7 | 32.2 | 20.6 | 22.3 | 117 | 89 | 60.1 | 26.4 | 29.9
23 | 26.4 | Cc1nc(C)c(C(=O)Oc2cccc(/C=C/C(=O)O)c2)nc1C | 8.2 | 28 | 38.5 | 73.4 | 103 | 75.3 | 64.3 | 61.6 | 24
24 | 37.5 | CCOC(=O)/C=C/c1cc(OC)c(OC(=O)c2nc(C)c(C)nc2C)c(OC)c1 | 59.5 | 55.9 | 47.2 | 44 | -47 | -13.6 | 20.9 | 96.6 | 21.4
25 | 44.6 | COc1cc(/C=C/C(=O)O)ccc1OC(=O)c1nc(C)c(C)nc1C | 73.2 | 46.2 | 22.8 | 60.6 | 55.4 | 49.1 | 40.3 | 38.7 | 69.4
26 | 74.8 | O=C(O)/C=C/c1ccc(O)cc1 [COUMARIC ACID] | 54.5 | 53.2 | 29.9 | 17.2 | – | – | – | – | –
27 | 41.8 | COc1ccc(/C=C/C(=O)O)cc1OC(=O)c1nc(C)c(C)nc1C | 75.2 | 59.8 | 53.5 | 21.6 | 216.3 | 159.6 | 128.1 | 41.3 | 8.8
28 | 265 | Cc1nc(C)c(C)nc1C [LIGUSTRAZINE] | 19.6 | 15.3 | 8.6 | 3.4 | 40.9 | 22.1 | 13.6 | 11.4 | 83.4
29 | 35.8 | CCOC(=O)/C=C/c1cccc(OC(=O)c2nc(C)c(C)nc2C)c1 | 69.4 | 59.6 | 62.2 | 25.1 | 47 | 39.5 | 34.2 | 27.9 | 92.6
30 | 28.2 | CCOC(=O)/C=C/c1ccc(OC)cc1OC(=O)c1nc(C)c(C)nc1C | 47 | 18.7 | 32.6 | 84.2 | 39.9 | 20.7 | 16.9 | -57.6 | 138
